Test results: US20250228835A1, “PYRIDINYLOXYPYRIDINES AND RELATED COMPOUNDS AND THEIR USE IN TREATING MEDICAL CONDITIONS” (Rectify Pharmaceuticals, Inc., priority 2024, published 2025)

Assays:
ABCD2 WT = molecular target: T1, ABCD2 WT (Homo sapiens, UniProt Q9UBJ2); test: D2 correction dose-response assay: ABCD2 WT HiBit protein expression; format: cell-based; details: HEK-293/ABCD2 WT cells, 24 hours treatment, HiBit luminescence; class combines EC50 and Mean MaxAct (fold); read-out: ABCD2 WT EC50, Emax
T1 construct: expressed in transfected cells
T1 sequence (Q9UBJ2 1-740): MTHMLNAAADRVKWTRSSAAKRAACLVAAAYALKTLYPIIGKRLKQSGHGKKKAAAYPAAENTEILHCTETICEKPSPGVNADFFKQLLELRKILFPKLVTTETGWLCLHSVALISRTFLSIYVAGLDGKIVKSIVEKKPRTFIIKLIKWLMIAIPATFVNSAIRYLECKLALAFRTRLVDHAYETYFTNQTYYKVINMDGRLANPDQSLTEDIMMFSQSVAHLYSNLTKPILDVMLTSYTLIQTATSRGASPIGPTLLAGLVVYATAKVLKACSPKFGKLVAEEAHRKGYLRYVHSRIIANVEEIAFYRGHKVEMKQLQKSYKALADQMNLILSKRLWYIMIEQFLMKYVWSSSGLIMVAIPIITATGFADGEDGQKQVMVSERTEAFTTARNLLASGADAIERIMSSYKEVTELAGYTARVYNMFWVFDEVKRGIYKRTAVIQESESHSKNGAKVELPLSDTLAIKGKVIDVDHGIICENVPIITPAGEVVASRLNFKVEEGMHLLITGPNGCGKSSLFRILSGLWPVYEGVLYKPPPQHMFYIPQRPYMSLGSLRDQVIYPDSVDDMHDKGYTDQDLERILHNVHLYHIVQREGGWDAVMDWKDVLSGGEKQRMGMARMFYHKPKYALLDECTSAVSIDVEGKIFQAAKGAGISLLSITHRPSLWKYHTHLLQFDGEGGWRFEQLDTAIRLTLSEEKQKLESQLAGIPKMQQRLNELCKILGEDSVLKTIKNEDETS
Method in brief: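 HEK-293 cells stably expressing HiBit-tagged human ABCD2 WT were treated with 11 doses (3-fold dilutions, top final 30 μM, 0.3% DMSO) for 24 h at 37 °C. Expression was measured by HiBit lytic luminescence after 1 h at 25 °C, giving EC50 and Emax.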

ABCC6 WT = molecular target: T2, ABCC6 WT (Homo sapiens, UniProt O95255); test: ABCC6 WT assay: HiBit protein expression; format: cell-based; details: HEK-293 cells transiently expressing HiBit-tagged ABCC6 WT; 24 h treatment; top concentration 20 μM; read-out: ABCC6 WT EC50, Emax
T2 construct: expressed in transfected cells; host or cells: HEK-293 (transient, Lipofectamine 2000)
T2 sequence (O95255 whole entry): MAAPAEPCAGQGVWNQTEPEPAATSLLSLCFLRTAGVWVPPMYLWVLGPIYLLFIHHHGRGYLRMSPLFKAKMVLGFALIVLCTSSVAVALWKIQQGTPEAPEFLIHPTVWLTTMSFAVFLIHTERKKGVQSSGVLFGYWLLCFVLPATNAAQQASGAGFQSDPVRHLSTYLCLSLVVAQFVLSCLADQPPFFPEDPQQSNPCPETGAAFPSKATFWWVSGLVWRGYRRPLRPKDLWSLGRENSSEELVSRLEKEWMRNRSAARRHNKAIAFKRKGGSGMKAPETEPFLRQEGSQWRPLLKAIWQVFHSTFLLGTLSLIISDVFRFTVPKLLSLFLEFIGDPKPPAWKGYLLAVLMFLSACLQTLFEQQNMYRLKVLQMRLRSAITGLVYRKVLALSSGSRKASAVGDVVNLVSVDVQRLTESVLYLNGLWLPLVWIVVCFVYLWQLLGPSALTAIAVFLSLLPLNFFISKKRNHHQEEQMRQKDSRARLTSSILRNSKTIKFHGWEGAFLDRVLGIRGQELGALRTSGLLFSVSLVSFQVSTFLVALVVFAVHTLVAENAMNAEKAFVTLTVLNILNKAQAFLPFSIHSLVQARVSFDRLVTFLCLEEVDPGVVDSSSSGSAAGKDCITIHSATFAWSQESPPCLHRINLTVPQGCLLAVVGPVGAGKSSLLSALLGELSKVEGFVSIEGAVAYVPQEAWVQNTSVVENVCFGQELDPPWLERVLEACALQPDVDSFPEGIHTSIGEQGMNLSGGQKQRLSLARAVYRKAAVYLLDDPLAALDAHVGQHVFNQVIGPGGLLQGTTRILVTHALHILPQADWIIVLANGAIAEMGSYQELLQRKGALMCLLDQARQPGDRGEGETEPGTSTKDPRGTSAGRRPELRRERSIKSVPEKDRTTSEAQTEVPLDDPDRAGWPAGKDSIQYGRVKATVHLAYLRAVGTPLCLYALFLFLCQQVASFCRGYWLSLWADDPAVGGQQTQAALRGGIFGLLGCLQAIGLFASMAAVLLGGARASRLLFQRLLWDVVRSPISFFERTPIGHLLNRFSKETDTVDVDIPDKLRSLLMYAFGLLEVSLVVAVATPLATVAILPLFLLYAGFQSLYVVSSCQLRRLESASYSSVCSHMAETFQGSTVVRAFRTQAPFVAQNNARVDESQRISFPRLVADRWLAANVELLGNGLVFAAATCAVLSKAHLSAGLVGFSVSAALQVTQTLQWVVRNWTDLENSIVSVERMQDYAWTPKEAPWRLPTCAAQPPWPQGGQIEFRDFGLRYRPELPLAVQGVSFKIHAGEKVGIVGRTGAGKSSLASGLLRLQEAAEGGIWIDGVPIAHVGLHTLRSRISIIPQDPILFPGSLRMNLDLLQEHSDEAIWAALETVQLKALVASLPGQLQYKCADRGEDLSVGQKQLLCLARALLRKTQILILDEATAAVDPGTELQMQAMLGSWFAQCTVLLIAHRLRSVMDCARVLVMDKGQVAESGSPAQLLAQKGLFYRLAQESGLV
Method in brief: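 HEK-293 cells transiently transfected with HiBit-tagged human ABCC6 WT cDNA, seeded 24 h post-transfection, treated 24 h at 37° C with ten 2-fold doses (top 20 μM final, 0.15% DMSO). HiBit lytic luminescence reports protein expression; Emax and EC50 derived.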

| EC50 (ABCD2 WT) [µM] | EC50 (ABCC6 WT) [µM] | Compound |
| --- | --- | --- |
| > 25 | < 1 | Cc1cc(C)c(Oc2nc(-c3cncc(Cl)c3)ccc2NS(=O)(=O)C(C)C)c(C)c1 [Compound I-29] |
| < 1 | < 1 | Cc1cc(C)c(Oc2nc(-c3cnc(C#N)c(Cl)c3)ccc2NS(C)(=O)=O)c(C)c1 [Compound I-36] |
| < 1 | < 1 | Cc1cc(C2CC2)nc(C)c1Oc1nc(-c2cncc(Cl)c2)ccc1NS(C)(=O)=O [Compound I-37] |
| < 1 | < 1 | Cc1cc(C)c(Oc2nc(-c3cncc(C#N)c3)ccc2NS(C)(=O)=O)c(C)c1 [Compound I-39] |
| < 1 | < 1 | Cc1cc(C)c(Oc2nc(-c3cncc(Cl)c3)ccc2NS(C)(=O)=O)c(C2CC2)n1 [Compound I-40] |
| < 1 | < 1 | Cc1cc(C)c(Oc2nc(-c3cncc(Cl)c3)ccc2NS(=O)(=O)C2COC2)c(C)c1 [Compound I-41] |
| 1 to 10 | < 1 | Cc1cc(C)c(Oc2nc(-c3cncc(Cl)c3)ccc2NS(=O)(=O)C2CC2)c(C)n1 [Compound I-238] |
| < 1 | < 1 | Cc1cc(C)c(Oc2nc(-c3ccnc(C#N)c3)ccc2NS(C)(=O)=O)c(C)n1 [Compound I-239] |
| < 1 | < 1 | Cc1cc(C(F)(F)F)nc(C)c1Oc1nc(-c2cncc(C#N)c2)ccc1NS(C)(=O)=O [Compound I-240] |
| 10 to 25 | 10 to 25 | Cc1cc(C)c(Oc2nc(-c3cccc(C#N)n3)ccc2NS(C)(=O)=O)c(C)n1 [Compound I-241] |
| > 25 | < 1 | CCCS(=O)(=O)Nc1ccc(-c2cncc(C#N)c2)nc1Oc1c(C)cc(C)nc1C [Compound I-242] |
| 10 to 25 | < 1 | Cc1cc(C)c(Oc2nc(-c3cncc(C#N)c3)ccc2NS(=O)(=O)C2CCC2)c(C)n1 [Compound I-243] |
| < 1 | < 1 | Cc1cc(C)c(Oc2nc(-c3cncc(C#N)c3)ccc2S(=N)(=O)C2CC2)c(C)c1 (stereo not drawn) [Compound I-245] |
| < 1 | < 1 | Cc1cc(C)c(Oc2nc(-c3cncc(Cl)c3)ncc2NS(C)(=O)=O)c(C)n1 [Compound I-246] |
| > 25 | < 1 | CCS(=O)(=O)Nc1ccc(-c2cncc(C#N)c2)nc1Oc1c(C)cc(C)nc1C [Compound I-247] |
| > 25 | 1 to 10 | Cc1cc(C)c(Oc2nc(-c3cncc(C#N)c3)ccc2S(=N)(=O)C2CC2)c(C)n1 (stereo not drawn) [Compound I-248] |
| 1 to 10 | ≥ 25 | Cc1cc(C)c(Oc2nc(-c3cncc(C#N)c3)ccc2S(C)(=N)=O)c(C)n1 (stereo not drawn) [Compound I-249] |
| > 25 | ≥ 25 | Cc1cnc(Oc2nc(-c3cncc(C#N)c3)ccc2NS(C)(=O)=O)c(C)c1 [Compound I-250] |
| > 25 | 10 to 25 | Cc1cc(C2CC2)nc(C)c1Oc1nc(-c2cncc(C#N)c2)ccc1S(C)(=N)=O (stereo not drawn) [Compound I-251] |
| 1 to 10 | 1 to 10 | Cc1cc(C2CC2)nc(C)c1Oc1nc(-c2cncc(C#N)c2)ccc1NS(=O)(=O)C1CCC1 [Compound I-252] |
| 1 to 10 | 1 to 10 | Cc1cc(C)c(Oc2nc(-c3cncc(C#N)c3)ccc2NS(=O)(=O)C2CCC2)c(C)c1 [Compound I-253] |
| 1 to 10 | < 1 | Cc1cc(C2CC2)nc(C)c1Oc1nc(-n2cc(C#N)cn2)ccc1NS(C)(=O)=O [Compound I-256] |
| 1 to 10 | 1 to 10 | Cc1cc(C)c(Oc2nc(-n3ccc(C#N)n3)ccc2NS(C)(=O)=O)c(C)c1 [Compound I-257] |
| 10 to 25 | 10 to 25 | Cc1cc(C)c(Oc2nc(-c3cncc(C#N)c3)ccc2S(N)(=O)=O)c(C)n1 [Compound I-258] |
| 1 to 10 | 1 to 10 | Cc1cc(C)c(Oc2nc(-c3cncc(C#N)c3)cnc2NS(C)(=O)=O)c(C)n1 [Compound I-259] |
| 1 to 10 | 1 to 10 | Cc1cc(C)c(Oc2nc(-c3cncc(Cl)c3)cnc2NS(C)(=O)=O)c(C)n1 [Compound I-260] |
| 1 to 10 | 1 to 10 | Cc1cc(C2CC2)nc(C)c1Oc1nc(-c2cncc(S(C)(=O)=O)c2)ccc1NS(C)(=O)=O [Compound I-263] |
| > 25 | ≥ 25 | Cc1cc(C2CC2)nc(C)c1Oc1nc(-c2cncc(C#N)c2)ccc1NS(=O)(=O)C1CC1 [Compound I-264] |

More lines, now with the values behind:

| Compound | EC50 (ABCD2 WT) [µM] | EC50 (ABCC6 WT) [µM] |
| --- | --- | --- |
| Cc1cc(C)c(Oc2nc(N3CC4CC3CN4C(=O)C3CC3)ccc2NS(C)(=O)=O)c(C)c1 (single isomer, unassigned) [Compound I-18] | > 25 | 1 to 10 |
| Cc1cc(C)c(Oc2nc(N3CC4CC3CN4C(=O)C3CC3)ccc2NS(C)(=O)=O)c(C)c1 (single isomer, unassigned) [Compound I-19] | > 25 | ≥ 25 |
| Cc1cc(C)c(Oc2nc(N3CCC(C#N)C3)ccc2NS(C)(=O)=O)c(C)c1 (single isomer, unassigned) [Compound I-261] | 1 to 10 | 1 to 10 |
| Cc1cc(C)c(Oc2nc(N3CCC(C#N)C3)ccc2NS(C)(=O)=O)c(C)c1 (single isomer, unassigned) [Compound I-262] | 1 to 10 | 1 to 10 |
| Cc1cc(C)c(Oc2nc(N3CCN(C(=O)C4CC4)CC3)ccc2NS(C)(=O)=O)c(C2CC2)n1 [Compound I-20] | 10 to 25 | 1 to 10 |
| Cc1cc(C)c(Oc2nc(N3CCn4c(C)nnc4C3)ccc2NS(C)(=O)=O)c(C)c1 [Compound I-21] | > 25 | 1 to 10 |
| Cc1cc(C)c(Oc2nc(N3CC4CC(C3)N4C(=O)C3CC3)ccc2NS(C)(=O)=O)c(C)c1 [Compound I-22] | 1 to 10 | 1 to 10 |
| Cc1cc(C)c(Oc2nc(N3CCN(C(=O)C4COC4)CC3)ccc2NS(C)(=O)=O)c(C)c1 [Compound I-23] | 10 to 25 | 10 to 25 |
| Cc1cc(C)c(Oc2nc(N3CCN(C(=O)C4CCC4)CC3)ccc2NS(C)(=O)=O)c(C)c1 [Compound I-24] | 1 to 10 | < 1 |
| Cc1cc(C)c(Oc2nc(N3CCC4(CN(C(=O)C5CC5)C4)C3)ccc2NS(C)(=O)=O)c(C)c1 [Compound I-25] | 1 to 10 | 1 to 10 |
| Cc1cc(C)c(Oc2nc(N3CCN(S(C)(=O)=O)CC3)ccc2NS(C)(=O)=O)c(C)c1 [Compound I-26] | 1 to 10 | ≥ 25 |
| CNC(=O)N1CCN(c2ccc(NS(C)(=O)=O)c(Oc3c(C)cc(C)cc3C)n2)CC1 [Compound I-27] | > 25 | 10 to 25 |
| Cc1cc(C2CC2)nc(C)c1Oc1nc(N2CCN(C(=O)C3CC3)CC2)ccc1NS(C)(=O)=O [Compound I-28] | > 25 | ≥ 25 |
| Cc1cc(C)c(Oc2nc(N3CCn4c(cnc4C)C3)ccc2NS(C)(=O)=O)c(C)c1 [Compound I-30] | 1 to 10 | 1 to 10 |
| Cc1cc(C)c(Oc2nc(N3CC4(CCN(C(=O)C5CC5)C4)C3)ccc2NS(C)(=O)=O)c(C)c1 [Compound I-31] | > 25 | 1 to 10 |
| Cc1cc(C)c(Oc2nc(N3CCN(C(=O)OC(C)C)CC3)ccc2NS(C)(=O)=O)c(C)c1 [Compound I-32] | 1 to 10 | 1 to 10 |
| Cc1cc(C)c(Oc2nc(N3CCN(C(=O)N(C)C)CC3)ccc2NS(C)(=O)=O)c(C)c1 [Compound I-33] | 10 to 25 | 1 to 10 |
| Cc1cc(C)c(Oc2nc(N3CCN(C(=O)C(C)(C)C)CC3)ccc2NS(C)(=O)=O)c(C)c1 [Compound I-34] | > 25 | 1 to 10 |
| Cc1cc(C)c(Oc2nc(N3C4CC3CN(C(=O)C3CC3)C4)ccc2NS(C)(=O)=O)c(C)c1 [Compound I-35] | > 25 | ≥ 25 |
| Cc1cc(C)c(Oc2nc(N3CC4(CN(C(=O)C5CC5)C4)C3)ccc2NS(C)(=O)=O)c(C)c1 [Compound I-38] | > 25 | ≥ 25 |
| Cc1cc(C)c(Oc2nc(N3CCC(C#N)CC3)ccc2NS(C)(=O)=O)c(C)c1 [Compound I-244] | 10 to 25 | 1 to 10 |
| Cc1cc(C2CC2)nc(C)c1Oc1nc(-n2cnc(C#N)c2)ccc1NS(C)(=O)=O [Compound I-254] | < 1 | < 1 |
| Cc1cc(C2CC2)nc(C)c1Oc1nc(-n2ccc(C#N)n2)ccc1NS(C)(=O)=O [Compound I-255] | 1 to 10 | 1 to 10 |
